According to US8426447B2, “Spiro-tricyclic ring compounds as beta-secretase modulators and methods of use” (Amgen Inc., priority 2008, dated 2013):

Tests used:
BACE1 [1] = target: T1, BACE1 (Homo sapiens, UniProt P56817); assay: In Vitro BACE Cell-based Assay (HEK cell assay): Aβ40 in conditioned medium of cells stably expressing Amyloid Precursor Protein, sandwich ELISA; conditions: read-out: HEK cell assay
Method in brief: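 HEK cells stably expressing APP were treated 24 h with compound in 10-point dose response starting at 100 or 10 μM (0.1% DMSO). Secreted Aβ40 quantified by sandwich ELISA (pAb40 capture, biotinylated 6E10 detection, europium time-resolved fluorescence), with IC50 derived from percent inhibition versus concentration.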

BACE1 [2] = target: T1, BACE1; assay: In Vitro Enzymatic BACE FRET (Fluorescence Resonance Energy Transfer) Assay; type: biochemical; conditions: read-out: BACE1 FRET assay
Method in brief: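 Cleavage of a 50 nM internally quenched peptide substrate is followed by fluorescence after a one-hour reaction in acidic acetate buffer, pH 4.2, terminated by Tris.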

[3] = HEK cell-based assay, Aβ40 in conditioned medium, IC50 class symbols
[4] = in vitro BACE FRET enzyme assay, IC50 class symbols

T1 sequence (P56817 46-501, species assumed): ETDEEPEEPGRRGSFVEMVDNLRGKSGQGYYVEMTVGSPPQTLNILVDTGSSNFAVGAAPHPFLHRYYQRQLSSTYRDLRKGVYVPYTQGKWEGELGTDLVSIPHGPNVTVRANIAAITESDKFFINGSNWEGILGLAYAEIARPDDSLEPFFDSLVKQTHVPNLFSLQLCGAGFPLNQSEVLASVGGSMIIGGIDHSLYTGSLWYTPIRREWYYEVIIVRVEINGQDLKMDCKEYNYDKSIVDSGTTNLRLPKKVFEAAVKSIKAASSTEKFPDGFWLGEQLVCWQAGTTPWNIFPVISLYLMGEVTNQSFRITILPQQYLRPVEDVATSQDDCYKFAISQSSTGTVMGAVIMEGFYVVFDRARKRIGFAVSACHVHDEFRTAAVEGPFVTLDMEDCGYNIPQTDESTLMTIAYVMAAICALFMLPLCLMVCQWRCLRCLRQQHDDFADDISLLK

Q: For `NC1=N[C@]2(CO1)c1cc(Br)ccc1Oc1c(F)cccc12` [compound 559], which IC50 (BACE1 [1]; Table IV, class symbols) is on record?
A: > 5 µM

Q: And the IC50 (BACE1 [2]; Table IV, class symbols)?
A: > 5 µM

Q: Which results are given for `CC(C)(C)OCCOc1ccc2c(c1)[C@]1(COC(N)=N1)c1cc(-c3cncnc3)ccc1O2` [compound 158]?
A: IC50 (BACE1 [1]; Table III, IC50's in uM ranges): < 0.1 µM; IC50 (BACE1 [2]; Table III, IC50's in uM ranges): < 0.1 µM

Q: Which results are given for `NC1=N[C@@]2(CO1)c1cc(-c3cncnc3)ccc1Oc1ccc(-c3cccc(OC(F)(F)F)c3)cc12` [compound 839]?
A: IC50 (BACE1 [1]; Table IV, class symbols): 1 to 5 µM; IC50 (BACE1 [2]; Table IV, class symbols): < 0.1 µM

Q: Which IC50 (BACE1 [1]; Table III, IC50's in uM ranges) does the source give for `CC(C)(F)COc1ccc2c(c1)[C@]1(COC(N)=N1)c1cc(-c3cccnc3)ccc1O2` [compound 148] here?
A: < 0.1 µM

Q: And the IC50 (BACE1 [2]; Table III, IC50's in uM ranges)?
A: < 0.1 µM

Q: With `NC1=N[C@]2(CO1)c1cc(C3=CCOCC3)ccc1Oc1cnc(-c3ccccc3F)cc12` [compound 498] as the compound, how does the IC50 (BACE1 [1]; HEK cells) read?
A: 0.1 to 1 µM

Q: And the IC50 (BACE1 [2])?
A: < 0.1 µM

Q: Which results are given for `COC(C)(C)C#Cc1cnc2c(c1)[C@@]1(COC(N)=N1)c1cc(-c3cncc(F)c3)ccc1O2` [compound 699]?
A: IC50 (BACE1 [1]): 1 to 5 µM; IC50 (BACE1 [2]): 0.1 to 1 µM

Q: How did the IC50 (BACE1 [1]) turn out when `NC1=N[C@]2(CO1)c1cc(Br)ccc1Oc1ccc(-c3cccnc3)cc12` [compound 960] was run?
A: 1 to 5 µM

Q: What about the IC50 (BACE1 [2]) of the same compound?
A: 0.1 to 1 µM

Q: With `NC1=N[C@@]2(CO1)c1cc(Br)ccc1Oc1ncccc12` [compound 601] as the compound, how does the IC50 (BACE1 [1]; Table IV, class symbols) read?
A: > 5 µM

Q: And the IC50 (BACE1 [2]; Table IV, class symbols)?
A: > 5 µM

Q: With `Cc1ccc2c(c1)Oc1ccc(-c3cccc(Cl)c3)cc1C21COC(N)=N1` (stereo not drawn) [Example 25, 2′-(3-chlorophenyl)-6′-methylspiro[1,3-oxazole-4,9′-xanthen]-2-amine] as the compound, how does the IC50 (BACE1 [1]; Table 1, Aβ40, 24 h incubation) read?
A: 1 to 5 µM

Q: And the IC50 (BACE1 [2]; Table 1)?
A: > 5 µM

Q: With `CC(C)(C)COc1ccc2c(c1)[C@]1(COC(N)=N1)c1cc(C(=O)NC3CCC3)ccc1O2` [compound 702] as the compound, how does the IC50 (BACE1 [1]) read?
A: 0.1 to 1 µM

Q: And the IC50 (BACE1 [2])?
A: < 0.1 µM

Q: For `NC1=N[C@]2(CO1)c1cnccc1Oc1ccc(-c3cccnc3)cc12` [compound 557], which IC50 (BACE1 [1]; Table IV, class symbols) is on record?
A: 1 to 5 µM

Q: What about the IC50 (BACE1 [2]; Table IV, class symbols) of the same compound?
A: > 5 µM

Q: Which IC50 (BACE1 [1]; Table IV, class symbols) does the source give for `CC(=O)Cc1ccc2c(c1)[C@]1(COC(N)=N1)c1cc(-c3cccnc3)ccc1O2` [compound 658] here?
A: 0.1 to 1 µM

Q: And the IC50 (BACE1 [2]; Table IV, class symbols)?
A: 0.1 to 1 µM

Q: What does the source list for `COc1ccc2c(c1)[C@]1(COC(N)=N1)c1cc(-c3cc(Cl)ccc3F)ccc1O2` [Example 12, (4S)-2′-(5-chloro-2-fluorophenyl)-7′-methoxyspiro[1,3-oxazole-4,9′-xanthen]-2-amine trifluoroacetic acid]?
A: IC50 (BACE1 [1]; Table 1, Aβ40, 24 h incubation): > 5 µM; IC50 (BACE1 [2]; Table 1): 0.1 to 1 µM

Q: Which results are given for `CC(C)(C)C#Cc1ccc2c(c1)[C@@]1(COC(N)=N1)c1cc(-c3ccc(F)nc3)ccc1O2` [147b]?
A: IC50 (BACE1 [1]; Table III, IC50's in uM ranges): 0.1 to 1 µM; IC50 (BACE1 [2]; Table III, IC50's in uM ranges): < 0.1 µM

Q: `Cc1ncccc1-c1ccc2c(c1)[C@@]1(COC(N)=N1)c1cc(OCC(C)(C)C)ccc1O2` [Example 79, (4S)-2′-(2,2-dimethylpropoxy)-7′-(2-methyl-3-pyridinyl)spiro[1,3-oxazole-4,9′-xanthen]-2-amine] was tested. Which IC50 (BACE1 [1]; Table II, Aβ40, 24 h incubation) did it give?
A: 0.1 to 1 µM

Q: What about the IC50 (BACE1 [2]; Table II) of the same compound?
A: 0.1 to 1 µM

Q: For `CC(C)(C)CCc1cnc2c(c1)[C@]1(COC(N)=N1)c1cc(-c3cccnc3)ccc1O2` [compound 922], which IC50 (BACE1 [1]; Table IV, class symbols) is on record?
A: < 0.1 µM

Q: And the IC50 (BACE1 [2]; Table IV, class symbols)?
A: < 0.1 µM

Q: With `COC(=O)CCc1ccc2c(c1)[C@]1(COC(N)=N1)c1cc(-c3cncnc3)ccc1O2` [compound 877] as the compound, how does the IC50 (BACE1 [1]; Table IV, class symbols) read?
A: 0.1 to 1 µM

Q: And the IC50 (BACE1 [2]; Table IV, class symbols)?
A: 0.1 to 1 µM

Q: What does the source list for `NC1=N[C@]2(CO1)c1cc(-c3ccccc3)ccc1Oc1ncccc12` [compound 598]?
A: IC50 (BACE1 [1]; Table IV, class symbols): > 5 µM; IC50 (BACE1 [2]; Table IV, class symbols): 1 to 5 µM

Q: For `NC1=N[C@@]2(CO1)c1cc(-c3cccnc3)ccc1Oc1cnc(Cl)cc12` [compound 676], which IC50 (BACE1 [1]) is on record?
A: 1 to 5 µM

Q: And the IC50 (BACE1 [2])?
A: 0.1 to 1 µM

Q: With `N#CCOc1ccc2c(c1)[C@]1(COC(N)=N1)c1cc(-c3cccnc3)ccc1O2` [compound 981] as the compound, how does the IC50 (BACE1 [1]) read?
A: 1 to 5 µM

Q: And the IC50 (BACE1 [2])?
A: 0.1 to 1 µM

Q: How did the IC50 (BACE1 [1]; Table IV, class symbols) turn out when `Cc1cc(-c2ccc3c(c2)[C@]2(COC(N)=N2)c2cc(-c4ccc(F)nc4)ccc2O3)on1` [compound 565] was run?
A: 0.1 to 1 µM

Q: What about the IC50 (BACE1 [2]; Table IV, class symbols) of the same compound?
A: < 0.1 µM

Q: What does the source list for `COC(C)(C)COc1cnc2c(c1)[C@@]1(COC(N)=N1)c1cc(-c3ccccc3)ccc1O2` [compound 349]?
A: IC50 (BACE1 [1]; [3]): 1 to 5 µM; IC50 (BACE1 [2]; [4]): 0.1 to 1 µM

Q: Which results are given for `CC(C)(C)COc1ccc2c(c1)[C@@]1(COC(N)=N1)c1cc(-c3ccc(C#N)cc3)ccc1O2` [Example 128, (R)-4-(2-amino-2′-(neopentyloxy)-5H-spiro[oxazole-4,9′-xanthene]-7′-yl)benzonitrile]?
A: IC50 (BACE1 [1]; Table III, IC50's in uM ranges): 0.1 to 1 µM; IC50 (BACE1 [2]; Table III, IC50's in uM ranges): < 0.1 µM

Q: Which IC50 (BACE1 [1]; [3]) does the source give for `NC1=N[C@@]2(CO1)c1cc(-c3cccnc3F)ccc1Oc1ccc(-c3ccnc(F)c3)nc12` [compound 399] here?
A: 0.1 to 1 µM

Q: And the IC50 (BACE1 [2]; [4])?
A: < 0.1 µM

Q: `NC1=N[C@]2(CO1)c1cc(Oc3ccccn3)ccc1Oc1ccc(-c3cccnc3)cc12` [compound 207] was tested. Which IC50 (BACE1 [1]; Table III, IC50's in uM ranges) did it give?
A: 0.1 to 1 µM

Q: And the IC50 (BACE1 [2]; Table III, IC50's in uM ranges)?
A: 0.1 to 1 µM

Q: For `COc1ccc2c(c1)[C@@]1(N=C(N)O[C@H]1C)c1cc(-c3cncnc3)ccc1O2` (single isomer, unassigned) [Example 125b], which IC50 (BACE1 [1]; Table III, IC50's in uM ranges) is on record?
A: 0.1 to 1 µM

Q: And the IC50 (BACE1 [2]; Table III, IC50's in uM ranges)?
A: 0.1 to 1 µM

Q: Which results are given for `NC1=N[C@]2(CO1)c1cc(-c3cc4ccccc4s3)ccc1Oc1ncccc12` [compound 618]?
A: IC50 (BACE1 [1]; Table IV, class symbols): 1 to 5 µM; IC50 (BACE1 [2]; Table IV, class symbols): > 5 µM
